Experimental data published in US20230322805A1, “NOVEL PYRIMIDODIAZEPINE DERIVATIVES OR USES THEREOF” (SPARK BIOPHARMA, INC., priority 2020, published 2023).

What was measured:
[1] = test system: BiFC-tau Venus HEK293 cells (tau aggregation, hTau441); assay: BiFC-tau Venus HEK293 cell assay monitoring tau aggregation under thapsigargin; assay type: cell-based, human
Description: Phenotype-based screening to monitor tau assembly was performed using BiFC-tau Venus HEK293 cells in a high-throughput manner. Cells were seeded in 384-well plates at a density of 2.8×10^3 cells/well in 40 μL medium for 24 hours. Cells were treated with 80 nM thapsigargin (Sigma-Aldrich) in 10 μL medium and then ˜ 3,000 pDOS library compounds (10 μM), including compounds according to the present invention, using a 0.1 μL pinning tool. For knockdown experiments, cells were transfected with 5 or 10 nM siRNA using Lipofectamine RNAiMAX and incubated for 48 hours before thapsigargin treatment. […] Plates were scanned on an INCell Analyzer 2000 (GE Healthcare) at λex/λem=490/525 nm for Venus fluorescence (for the FITC channel) and λex/λem=350/455 nm for nuclei (for the DAPI channel). Bright-field images were taken to confirm cell morphology, and images were analyzed to quantify Venus intensity per cell using developer software (GE Healthcare).
1-1. According to the method described in Examples 1-15 above, the expression of Venus-based bimolecular fluorescence complemented-tau (BiFC-tau) was confirmed using HEK293 human embryonic kidney cells, thereby phenotyping the phenotype-based screening was performed.
The N-terminal Venus (VN173) and C-terminal Venus (VC155) fragment sequences are fused with the full-length human tau (hTau441) sequence to form the BiFC-tau Venus HEK293 cell system. Soluble tau dimers can be measured by monitoring the turn-on/off signal of Venus fluorescence through co-expression of the two fused vectors, hTau441-VN173 and hTau441-VC1 55.
As a stimulator of tau aggregation, thapsigargin (TG; an ER stress inducer), a direct inhibitor of sarco/endoplasmic reticulum Ca2^+-ATPase, was used. This disrupts calcium homeostasis. Thapsigargin treatment induces tau dimerization (tau aggregation), which can be confirmed by BiFC-tau Venus fluorescence turn-on.

[2] = target: T1, PDIA3 (Homo sapiens, UniProt P30101); assay: CETSA and pull-down assay with probe SB1624; assay type: binding; parameters: endogenous in cells; host or cells: HEK293 BiFC-tau cells (TS-FITGE, CETSA, PEG-maleimide assay); SH-SY5Y cells (pull-down with probe SB1624); settings: CETSA 10 μM in HEK293 BiFC-tau cells; pull-down 5 μM SB1624 with or without 40 μM SB1617 in SH-SY5Y cells
T1 sequence (P30101 25-505): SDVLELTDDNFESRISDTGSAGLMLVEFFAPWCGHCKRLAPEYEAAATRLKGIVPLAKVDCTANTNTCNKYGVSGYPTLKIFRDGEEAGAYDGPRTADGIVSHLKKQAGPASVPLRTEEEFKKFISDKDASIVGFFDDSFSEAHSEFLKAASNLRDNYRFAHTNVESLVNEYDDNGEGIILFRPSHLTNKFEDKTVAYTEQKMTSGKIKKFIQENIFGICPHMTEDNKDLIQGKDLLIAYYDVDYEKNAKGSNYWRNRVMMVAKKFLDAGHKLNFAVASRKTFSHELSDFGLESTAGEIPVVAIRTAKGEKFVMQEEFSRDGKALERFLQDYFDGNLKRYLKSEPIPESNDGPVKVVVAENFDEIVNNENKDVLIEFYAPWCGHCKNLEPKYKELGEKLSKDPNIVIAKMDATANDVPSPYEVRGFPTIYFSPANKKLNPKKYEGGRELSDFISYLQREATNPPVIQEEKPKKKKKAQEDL
Description: HEK293 BiFC-tau cells were treated with DMSO (0.1%) and a compound according to the present invention (10 μM) in the presence of thapsigargin (200 nM) for 3 hours. The cell suspension was heated at the indicated temperature range for 3 minutes and then at 25° C. for 3 minutes. The heated cells were washed with PBS and resuspended in Lysis Buffer A. For cell lysis, cell suspensions were freeze-thawed in liquid nitrogen three times. The cell lysate was washed by centrifugation at 20000 g, 4° C. for 20 minutes. Equal volumes of washed cell lysate were combined with SDS buffer and subjected to immunoblotting.
SH-SY5Y cells were seeded in 6-well plates and then treated with 1 μM thapsigargin and 5 μM SB1624 (probe compound) for 2.5 hours with or without 40 μM SB1617. Cells were exposed to 356 nm UV irradiation for 30 min on ice. After washing with cold PBS, cells were lysed in RIPA buffer and removed by centrifugation at […] for 15 minutes at 4° C. The protein concentration of the supernatant was determined by Pierce BCA Protein Assay Kit and the protein concentration was adjusted to 1 mg/mL. […] Proteins were eluted by boiling with 3×SDS sample buffer and analyzed by SDS-PAGE and Western blot. […]

[3] = test system: autophagy-related genes regulated by ATF4 in SH-SY5Y cells; assay: RT-qPCR of autophagy-related genes regulated by ATF4; assay type: cell-based, human; settings: 5 μM SB1617 with 1 μM thapsigargin, 8 hours, versus thapsigargin alone
Description: To analyze the level of autophagy-related genes, SH-SY5Y cells were treated with 1 μM thapsigargin for 8 h in the presence or absence of 5 μM SB1617. Total RNA was extracted using the RNeasy kit (Qiagen) according to the manufacturer's instructions. RNA was quantified using NanoVue (GE Healthcare) and cDNA was prepared with AccuPower CycleScript RT PreMix dT20 (Bioneer) according to the manufacturer's instructions. Quantitative RT-polymerase chain reaction (qRT-PCR) experiments were performed using KAPA SYBR FAST ABI Prism qPCR Master Mix (KAPA Biosystems). Data were analyzed with the comparative Ct method and normalized to housekeeping genes.
5-3. ATF4 is a transcription factor, which rises during elF2a-phosphorylation and upregulates genes related to autophagy and oxidation/reduction control as a recovery mechanism during ER stress. To assure this, 5 μM SB1617 was treated in SH-SY5Y cells for 8 hours in the presence or absence of 1 μM thapsigargin, and then autophagy-related genes regulated by ATF4 were identified with RT-qPCR.

CN(Cc1ccc(Cl)cc1)c1ncnc2c1[C@@H]1OC[C@H](CN2)N1S(=O)(=O)c1ccc([N+](=O)[O-])cc1 [Compound 117]
BiFC-Venus fluorescence induced by thapsigargin (FITC channel image) ([1]; 10 μM SB1617 with 80 nM thapsigargin, 24 hours): suppresses BiFC-Venus fluorescence | IC50 ([1]; Homo sapiens, HEK293, inhibition of BiFC-tau Venus fluorescence, 80 nM thapsigargin, table head prints no unit, μM, read-out: BiFC-tau intensity (IC50)): 1.9 µM | activity at 10 µM ([1]; Homo sapiens, HEK293-BiFC-tau-Venus cells co-treated with 10 μM compound and 80 nM thapsigargin for 24 hours, read-out: BiFC-tau intensity (%)): 36% | change in Venus fluorescence intensity ([1]; various concentrations with 80 nM TG for 20 hours): dose dependent | specific binding (CETSA, pull-down) [2]: specifically binds | transcription level of autophagy-related genes regulated by ATF4 [3]: increased the transcription level of autophagy-related genes
